Measurements as given in US20250388605A1, “HETEROBIFUNCTIONAL COMPOUNDS AND METHODS OF TREATING DISEASE” (Halda Therapeutics OpCo, Inc., priority 2022, published 2025).

Experiments:
[1] = system: T-Rex 293 cell line SC3 cells lacking increased expression of androgen receptor protein; test: Cellular growth inhibition, T-Rex 293 SC3 cells without doxycycline (no increased androgen receptor expression), CellTiter-Glo; format: cell-based; conditions: T-Rex 293 SC3 cells not exposed to doxycycline (no increased androgen receptor expression), 72 hours
Outline: (§1)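 Growth inhibition is measured in an inducible AR-expressing T-Rex 293 clone, SC3, cultured with or without 10 ng/mL doxycycline in hormone-depleted medium. Test compounds are applied for 72 hours. GI50 values derive from CellTiter-Glo 2.0 signal fitted by four-parameter regression.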

VCaP cells = test: Cellular growth inhibition assay for VCaP cells, CellTiter-Glo; format: cell-based, human; conditions: 72 hours
Outline: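 GI50 values come from four-parameter curve fits of luminescence data normalized to a zero baseline. Compound, in medium with 0.5% DMSO, was added one day after plating and left for 72 h before CellTiter-Glo 2.0 addition.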

[2] = system: T-Rex 293 cell line SC3 cells having increased expression of androgen receptor protein due to exposure to doxycycline; test: Cellular growth inhibition, T-Rex 293 SC3 cells with doxycycline (increased androgen receptor expression), CellTiter-Glo; format: cell-based; conditions: T-Rex 293 SC3 cells with 10 ng/mL doxycycline (increased androgen receptor expression), 72 hours, CellTiter-Glo 2.0
Outline: as §1

T47D cells = test: Cellular Growth Inhibition Assay for T47D Cells (CellTiter-Glo); format: cell-based, human; conditions: 72 hours
Outline: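 GI50 values derive from four-parameter regression of CellTiter-Glo 2.0 luminescence, using zero luminescence as baseline. Human breast cancer T47D cells (3000/well; DMEM, 10% FBS, 0.2 units/mL insulin) were exposed for 72 h to compound dilutions at 0.5% DMSO, with dosing starting 24 h after seeding.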

GI50 (VCaP cells; Homo sapiens) [nM]	GI50 (T47D cells; Homo sapiens) [nM]	GI50 (VCaP cells) [nM]	GI50 (T47D cells) [nM]	Compound	GI50 [1] [nM]	GI50 [2] [nM]
–	–	< 500	< 500	CCS(=O)(=O)c1ccc(Oc2ccc(N3CC(C4CCN(c5ncc(C(=O)N[C@H]6C(C)(C)[C@H](Oc7ccc(C#N)c(Cl)c7)C6(C)C)cn5)CC4)C3)cc2)c(-c2cn(C)c(=O)c3[nH]ccc23)c1 [Compound I-291]	< 500	< 500
< 500	< 500	–	–	CCS(=O)(=O)c1ccc(-c2cn(C)c(=O)c3[nH]ccc23)c(-n2cc(CCC3CCN(c4ncc(C(=O)NC5C(C)(C)C(Oc6ccc(C#N)c(Cl)c6)C5(C)C)cn4)CC3)ncc2=O)c1 (centres unmarked) [Compound I-292, N-[3-(3-chloro-4-cyano-phenoxy)-2,2,4,4-tetramethyl-cyclobutyl]-2-[4-[2-[4-[5-ethylsulfonyl-2-(6-methyl-7-oxo-1H-pyrrolo[2,3-c]pyridin-4-yl)phenyl]-5-oxo-pyrazin-2-yl]ethyl]-1-piperidyl]pyrimidine-5-carboxamide]	< 500	< 500
–	–	< 500	< 500	CCS(=O)(=O)Cc1ccc(Oc2cccc(OC(C)(C)CCC3CCN(c4ncc(C(=O)N[C@H]5C(C)(C)[C@H](Oc6ccc(C#N)c(Cl)c6)C5(C)C)cn4)CC3)c2)c(-c2cn(C)c(=O)c3[nH]ccc23)c1 [Compound I-293]	> 3000	< 500
< 500	< 500	–	–	Cn1cc(-c2cc(C(C)(C)O)ccc2Oc2ccc(OC3CCN(c4ncc(C(=O)N[C@H]5C(C)(C)[C@H](Oc6ccc(C#N)c(Cl)c6)C5(C)C)cn4)CC3)nc2)c2cc[nH]c2c1=O [Compound I-297, N-[3-(3-chloro-4-cyano-phenoxy)-2,2,4,4-tetramethyl-cyclobutyl]-2-[4-[[5-[4-(1-hydroxy-1-methyl-ethyl)-2-(6-methyl-7-oxo-1H-pyrrolo[2,3-c]pyridin-4-yl)phenoxy]-2-pyridyl]oxy]-1-piperidyl]pyrimidine-5-carboxamide]	< 500	< 500
< 500	< 500	–	–	Cn1cc(-c2cc(C(C)(C)O)ccc2Oc2ccc(CC3CCN(c4ncc(C(=O)N[C@H]5C(C)(C)[C@H](Oc6ccc(C#N)c(Cl)c6)C5(C)C)cn4)CC3)nc2)c2cc[nH]c2c1=O [Compound I-298, N-[3-(3-chloro-4-cyano-phenoxy)-2,2,4,4-tetramethyl-cyclobutyl]-2-[4-[[5-[4-(1-hydroxy-1-methyl-ethyl)-2-(6-methyl-7-oxo-1H-pyrrolo[2,3-c]pyridin-4-yl)phenoxy]-2-pyridyl]methyl]-1-piperidyl]pyrimidine-5-carboxamide]	< 500	< 500
–	–	500 to 1500	< 500	Cn1cc(-c2cc(C(C)(C)O)ccc2Oc2ccc(CCC3CCCN(c4ncc(C(=O)N[C@H]5C(C)(C)[C@H](Oc6ccc(C#N)c(Cl)c6)C5(C)C)cn4)C3)cc2)c2cc[nH]c2c1=O (some centres unmarked) [Compound I-301]	> 3000	< 500
–	–	< 500	500 to 1500	Cn1cc(-c2cc(C(C)(C)O)ccc2Oc2ccc(CCC3CCN(c4ncc(C(=O)N[C@H]5C(C)(C)[C@H](Oc6ccc(C#N)c(Cl)c6)C5(C)C)cn4)CC3)nc2)c2cc[nH]c2c1=O [Compound I-302]	500 to 1500	< 500
< 500	< 500	–	–	Cn1cc(-c2cc(C(C)(C)O)ccc2Oc2ccc(CCC3CN(c4ncc(C(=O)N[C@H]5C(C)(C)[C@H](Oc6ccc(C#N)c(Cl)c6)C5(C)C)cn4)CCO3)cc2)c2cc[nH]c2c1=O (some centres unmarked) [Compound I-305]	> 3000	< 500
–	–	500 to 1500	> 3000	Cn1cc(-c2cc(C(C)(C)O)ccc2Oc2ccc(CCCC3CCCN(c4ncc(C(=O)N[C@H]5C(C)(C)[C@H](Oc6ccc(C#N)c(Cl)c6)C5(C)C)cn4)C3)cc2)c2cc[nH]c2c1=O (some centres unmarked) [Compound I-306]	> 3000	< 500
< 500	> 3000	–	–	Cn1cc(-c2cc(C(C)(C)O)ccc2Oc2ccc(C(C)(C)N3CC4(CCN(c5ncc(C(=O)N[C@H]6C(C)(C)[C@H](Oc7ccc(C#N)c(Cl)c7)C6(C)C)cn5)CC4)C3)cc2)c2cc[nH]c2c1=O [Compound I-308]	500 to 1500	< 500
–	–	< 500	< 500	Cn1cc(-c2cc(C(C)(C)O)ccc2Oc2ccc(C3CC(N4CCN(c5ncc(C(=O)N[C@H]6C(C)(C)[C@H](Oc7ccc(C#N)c(Cl)c7)C6(C)C)cn5)CC4)C3)cc2)c2cc[nH]c2c1=O (some centres unmarked) [Compound I-311]	500 to 1500	< 500

Continued, compound first:

Compound	GI50 (VCaP cells; Homo sapiens) [nM]	GI50 (T47D cells; Homo sapiens) [nM]	GI50 (VCaP cells) [nM]	GI50 (T47D cells) [nM]	GI50 [1] [nM]	GI50 [2] [nM]
Cn1cc(-c2cc(C(C)(C)O)ccc2OC2CCC(N3CC(OC4CCN(c5ncc(C(=O)N[C@H]6C(C)(C)[C@H](Oc7ccc(C#N)c(Cl)c7)C6(C)C)cn5)CC4)C3)CC2)c2cc[nH]c2c1=O (some centres unmarked) [Compound I-288, N-[3-(3-chloro-4-cyano-phenoxy)-2,2,4,4-tetramethyl-cyclobutyl]-2-[4-[1-[4-[4-(1-hydroxy-1-methyl-ethyl)-2-(6-methyl-7-oxo-1H-pyrrolo[2,3-c]pyridin-4-yl)phenoxy]cyclohexyl]azetidin-3-yl]oxy-1-piperidyl]pyrimidine-5-carboxamide]	< 500	< 500	–	–	< 500	< 500
Cn1cc(-c2cc(C(C)(C)O)ccc2OC2CCC(N3CC(OC4CCN(c5ncc(C(=O)NC6C(C)(C)C(Oc7ccc(C#N)c(Cl)c7)C6(C)C)cn5)CC4)C3)CC2)c2cc[nH]c2c1=O (centres unmarked) [Compound I-289]	–	–	500 to 1500	1500 to 3000	1500 to 3000	< 500
Cn1cc(-c2cc(C(C)(C)O)ccc2O[C@H]2C[C@H](OCC3CCN(c4ncc(C(=O)N[C@H]5C(C)(C)[C@H](Oc6ccc(C#N)c(Cl)c6)C5(C)C)cn4)CC3)C2)c2cc[nH]c2c1=O [Compound I-290]	–	–	< 500	500 to 1500	< 500	< 500
Cn1cc(-c2cc(C(C)(C)O)ccc2Oc2cccc(N3CC(CN4CCN(c5ncc(C(=O)N[C@H]6C(C)(C)[C@H](Oc7ccc(C#N)c(Cl)c7)C6(C)C)cn5)CC4(C)C)C3)c2F)c2cc[nH]c2c1=O [Compound I-294]	–	–	< 500	< 500	> 3000	< 500
CCS(=O)(=O)c1ccc(OC2CC(OC3CC4(CCN(c5ncc(C(=O)NC6C(C)(C)C(Oc7ccc(C#N)c(Cl)c7)C6(C)C)cn5)CC4)C3)C2)c(-c2cn(C)c(=O)c3[nH]ccc23)c1 (centres unmarked) [Compound I-295, N-[3-(3-chloro-4-cyano-phenoxy)-2,2,4,4-tetramethyl-cyclobutyl]-2-[2-[3-[4-ethylsulfonyl-2-(6-methyl-7-oxo-1Hpyrrolo[2,3-c]pyridin-4-yl)phenoxy]cyclobutoxy]-7-azaspiro[3.5]nonan-7-yl]pyrimidine-5-carboxamide]	< 500	< 500	–	–	< 500	< 500
Cn1cc(-c2cc(C(C)(C)O)ccc2OC2CC3CC2CC3OCC2CCN(c3ncc(C(=O)N[C@H]4C(C)(C)[C@H](Oc5ccc(C#N)c(Cl)c5)C4(C)C)cn3)CC2)c2cc[nH]c2c1=O (some centres unmarked) [Compound I-296]	–	–	< 500	> 3000	> 3000	< 500
Cn1cc(-c2cc(C(C)(C)O)ccc2Oc2ccc(CN3CC4(C3)CN(c3ncc(C(=O)N[C@H]5C(C)(C)[C@H](Oc6ccc(C#N)c(Cl)c6)C5(C)C)cn3)CCO4)cc2)c2cc[nH]c2c1=O [Compound I-300]	–	–	< 500	< 500	< 500	< 500
Cn1cc(-c2cc(C(C)(C)O)ccc2Oc2ccc(CCCC3CN(c4ncc(C(=O)N[C@H]5C(C)(C)[C@H](Oc6ccc(C#N)c(Cl)c6)C5(C)C)cn4)CCO3)cc2)c2cc[nH]c2c1=O (some centres unmarked) [Compound I-307]	–	–	< 500	< 500	> 3000	< 500
Cn1cc(-c2cc(C(C)(C)O)ccc2O[C@H]2C[C@H](CC3CCN(c4ncc(C(=O)N[C@H]5C(C)(C)[C@H](Oc6ccc(C#N)c(Cl)c6)C5(C)C)cn4)CC3)C2)c2cc[nH]c2c1=O [Compound I-309, N-[3-(3-chloro-4-cyano-phenoxy)-2,2,4,4-tetramethyl-cyclobutyl]-2-[4-[[3-[4-(1-hydroxy-1-methyl-ethyl)-2-(6-methyl-7-oxo-1H-pyrrolo[2,3-c]pyridin-4-yl)phenoxy]cyclobutyl]methyl]-1-piperidyl]pyrimidine-5-carboxamide]	< 500	< 500	–	–	500 to 1500	< 500
Cn1cc(-c2cc(C(C)(C)O)ccc2O[C@H]2C[C@H](CCC3CCN(c4ncc(C(=O)N[C@H]5C(C)(C)[C@H](Oc6ccc(C#N)c(Cl)c6)C5(C)C)cn4)CC3)C2)c2cc[nH]c2c1=O [Compound I-310]	–	–	< 500	< 500	< 500	< 500
Cn1cc(-c2cc(C(C)(C)O)ccc2Oc2ccc(C(C)(C)N3CC4(CN(c5ncc(C(=O)N[C@H]6C(C)(C)[C@H](Oc7ccc(C#N)c(Cl)c7)C6(C)C)cn5)CCO4)C3)cc2)c2cc[nH]c2c1=O [Compound I-312]	–	–	< 500	500 to 1500	500 to 1500	< 500
Cn1cc(-c2cc(C(C)(C)O)ccc2Oc2ccc(N3CC(CC4CN(C5CCC(C(=O)N[C@H]6C(C)(C)[C@H](Oc7ccc(C#N)c(Cl)c7)C6(C)C)CC5)C4)C3)cc2)c2cc[nH]c2c1=O (some centres unmarked) [Compound I-313]	< 500	< 500	–	–	500 to 1500	500 to 1500
